The values that follow come from PubChem BioAssay (NCI).

SMILES strings stand for the structures. “And” between values parts separate entries of the source, which are not always exact repeats. Equal entries are not always repeated.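 Each compound was tested at five concentrations against cells in 96-well plates for 48 hours. GI50 is the concentration that inhibits growth by half. Definition used: TGI = concentration required for complete inhibition of growth.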

Test systems include A549 NSCLC; IGROV1 ovarian; NCI-H522 lung; NCI/ADR-RES ovarian; OVCAR-5 ovarian; OVCAR-8 ovarian; SK-OV-3 ovarian; SNB-19 CNS; SNB-75 CNS; U251 CNS.
What all share (experiment): growth of human tumour cells (NCI), 48 h

Consider `N#CC1=C(N)Oc2c(sc3c(Br)cccc23)C1c1ccc(F)cc1` (configuration not stated), for which the GI50 in the test with A549 NSCLC is 0.519 µM; in the test with IGROV1 ovarian it was 0.605 µM; in the test on NCI-H522 lung it was 0.0838 µM; in the test with NCI/ADR-RES ovarian, 0.215 µM; in the test on OVCAR-5 ovarian, 1.77 µM; with OVCAR-8 ovarian, 0.76 µM. Further, the GI50 in the test on SK-OV-3 ovarian was 0.471 µM; with SNB-19 CNS, 0.719 µM; with SNB-75 CNS it was 0.327 µM; in the test on U251 CNS, 0.473 µM. The TGI with A549 NSCLC came to 18 µM; in the test with IGROV1 ovarian, 21 µM; with NCI-H522 lung it was 13.7 µM; with NCI/ADR-RES ovarian, 2.63 µM; in the test with OVCAR-5 ovarian it was 19.6 µM; with OVCAR-8 ovarian it was 24.4 µM. Besides, the TGI in the test with SK-OV-3 ovarian turned out to be 18.6 µM; with SNB-19 CNS it was 25 µM; in the test on SNB-75 CNS, 18.9 µM; with U251 CNS, 13.4 µM.
As to `COc1ccc(-c2cn(-c3cc(OC)c(OC)c(OC)c3)c(=O)n2-c2ccccc2)cc1`, the GI50 is more than 100 µM in the test on A549 NSCLC; 27.6 µM with IGROV1 ovarian; 66.7 µM in the test on NCI-H522 lung; 74.6 µM in the test on NCI/ADR-RES ovarian; more than 100 µM in the test on OVCAR-5 ovarian; more than 100 µM in the test on OVCAR-8 ovarian. Further, the GI50 in the test on SK-OV-3 ovarian is more than 100 µM; with SNB-19 CNS, more than 100 µM; in the test on SNB-75 CNS, 30.7 µM; with U251 CNS it was more than 100 µM. In addition, the TGI with A549 NSCLC, in the test with IGROV1 ovarian, in the test with NCI-H522 lung, in the test on NCI/ADR-RES ovarian, in the test on OVCAR-5 ovarian and in the test on OVCAR-8 ovarian was more than 100 µM throughout. The TGI with SK-OV-3 ovarian, in the test with SNB-19 CNS, with SNB-75 CNS and in the test on U251 CNS was more than 100 µM each time.
Consider `O=C1c2c(O)ccc(O)c2C(=O)c2c(NCCNCCO)ccc(NCCNCCO)c21`, for which the TGI was 0.418 µM and 0.627 µM in the test with A549 NSCLC; 1.41 µM and 3.13 µM and 2.21 µM in the test with IGROV1 ovarian; 0.101 µM and 0.0831 µM and 0.574 µM in the test on NCI-H522 lung; > 100 µM and 50 µM and 23.9 µM in the test on NCI/ADR-RES ovarian; 1.05 µM and 4.75 µM and 2.74 µM in the test with OVCAR-5 ovarian; 0.388 µM and 0.414 µM and 0.665 µM with OVCAR-8 ovarian. For the same molecule, the TGI with SK-OV-3 ovarian is 0.228 µM and 0.563 µM and 0.431 µM; in the test with SNB-19 CNS, 0.546 µM and 2.08 µM and 0.79 µM; in the test on SNB-75 CNS, 0.122 µM and 0.541 µM and 0.218 µM; in the test with U251 CNS it was 0.151 µM and 0.499 µM and 0.376 µM. The GI50 with NCI-H522 lung was 0.0232 µM and 0.00969 µM and 0.0544 µM; in the test with NCI/ADR-RES ovarian it was 1.41 µM and 1.64 µM and 3.86 µM.
For `CCOc1cccc(/C=N/NC(=O)Cc2ccc(Nc3ccnc(C(F)(F)F)c3)cc2)c1O`, the GI50 in the test on A549 NSCLC is 4.09 µM; in the test on IGROV1 ovarian, 2.27 µM; in the test with NCI-H522 lung it was 4.76 µM; in the test on NCI/ADR-RES ovarian, 4.23 µM; in the test with OVCAR-5 ovarian it was 32.6 µM; with OVCAR-8 ovarian, 3.27 µM. For the same molecule, the GI50 is 3.3 µM in the test on SK-OV-3 ovarian, 2.54 µM with SNB-19 CNS, 12.4 µM in the test on SNB-75 CNS and 1.58 µM in the test on U251 CNS. The TGI in the test with A549 NSCLC was more than 100 µM; in the test with IGROV1 ovarian it was more than 100 µM; with NCI-H522 lung, 33.2 µM; with NCI/ADR-RES ovarian it was more than 100 µM; in the test with OVCAR-5 ovarian, more than 100 µM; in the test with OVCAR-8 ovarian it was more than 100 µM. The TGI was more than 100 µM in the test with SK-OV-3 ovarian, more than 100 µM in the test on SNB-19 CNS, 55 µM in the test on SNB-75 CNS and more than 100 µM in the test with U251 CNS.
As for `O=C(Nc1nc2ccc(F)cc2s1)c1cccnc1Nc1ccc(Cl)cc1Cl`, the GI50 is 3.51 µM with A549 NSCLC; 3.66 µM in the test with IGROV1 ovarian; 2.53 µM in the test on NCI-H522 lung; 2.59 µM in the test on NCI/ADR-RES ovarian; 7.71 µM with OVCAR-5 ovarian; 3.43 µM in the test with OVCAR-8 ovarian. Also, the GI50 was 2.26 µM with SK-OV-3 ovarian, 3.22 µM in the test with SNB-19 CNS, 1.96 µM in the test on SNB-75 CNS and 2.92 µM in the test with U251 CNS. The TGI in the test on A549 NSCLC is 16.1 µM; with IGROV1 ovarian it was more than 23.6 µM; in the test with NCI-H522 lung, more than 25.6 µM; in the test on NCI/ADR-RES ovarian it was 10.5 µM; in the test on OVCAR-5 ovarian it was 28.9 µM; in the test with OVCAR-8 ovarian, 22.8 µM. For the same molecule, the TGI came to 7.38 µM in the test with SK-OV-3 ovarian, 14.7 µM in the test with SNB-19 CNS, 9.14 µM with SNB-75 CNS and 12 µM in the test on U251 CNS.
Regarding `CC(=O)c1c(Nc2ccc(F)c(F)c2F)[nH]c2c(F)cc(F)cc2c1=O`, the GI50 with A549 NSCLC was 0.382 µM; in the test on IGROV1 ovarian it was 0.396 µM; with NCI-H522 lung, 0.285 µM; in the test with NCI/ADR-RES ovarian, 0.322 µM; in the test with OVCAR-5 ovarian, 0.552 µM; with OVCAR-8 ovarian it was 0.365 µM. The GI50 in the test with SK-OV-3 ovarian is 0.297 µM; in the test with SNB-19 CNS it was 0.354 µM; in the test on SNB-75 CNS it was 0.289 µM; in the test with U251 CNS, 0.343 µM. Moreover, the TGI in the test on A549 NSCLC was more than 41.8 µM; with IGROV1 ovarian, more than 47.4 µM; in the test on NCI-H522 lung, 16.6 µM; with NCI/ADR-RES ovarian it was 34.5 µM; in the test on OVCAR-5 ovarian, 25.4 µM; with OVCAR-8 ovarian it was more than 100 µM. In addition, the TGI in the test on SK-OV-3 ovarian was 3.24 µM; in the test on SNB-19 CNS, more than 70.2 µM; in the test on SNB-75 CNS it was 8.52 µM; in the test on U251 CNS, 20.1 µM.
